Laboratory results: patent US20260027068A1, “METHODS OF ADM[…]-KETAMINE” (Perception Neuroscience, Inc., priority 2022, published 2026)

Assay: Respiratory rate (vital signs)
Description: The Investigational Medicinal Product (IMP) R(−)-ketamine hydrochloride in sterile water for intravenous injection was investigated as an […] treatment of TRD. The International Union of Pure and Applied Chemistry (IUPAC) name is of the IMP is (2R)-2-(2-chlorophenyl)-2-(methylamino)cyclohexan-1-one. Subjects received the solution at either 30 mg or 60 mg dose, or a placebo. The IMP or placebo was administered on Day 1 as a single IV infusion via an electronic infusion pump over 40 minutes. The duration of study participation for each subject was up to 29 days including a screening period, a 3-day in-clinic visit, and 2 follow-up visits. 101 subjects were enrolled in approximately 20 study centers in the EU and the US.
Tympanic or temporal temperature, heart rate, blood pressure (SBP/DBP), respiratory rate, and SpO2 were assessed. Blood pressure and pulse measurements will be assessed with a completely automated device while the subject is supine or semi-supine. Manual techniques will be used only if an automated device is not available. Blood pressure and pulse measurements should be preceded by at least 5 minutes of rest for the subject in a quiet setting without distractions (e.g., television, cell phones). An abnormal blood pressure value at screening may be repeated once after 5 minutes of relaxation to determine the subject's eligibility. Blood pressure was recorded using the same arm and position (supine or semi-supine) throughout the study, where possible. Vital signs (to be taken before blood collection for laboratory tests) consisted of 1 pulse and 3 blood pressure measurements (3 consecutive blood pressure readings will be recorded at intervals of at least 1 minute). The average of the 3 blood pressure readings was recorded in the CRF. A pulse oximeter was used to measure peripheral capillary oxygen saturation (SpO2) continuously from pre-dose until 4-hours post-dose. A pulse oximeter was clipped onto the finger or foot of the subject, and light will be sent through the finger or foot and measured on the other side.
In these tables, baseline value is defined as the last non-missing value prior to study drug administration.

CN[C@@]1(c2ccccc2Cl)CCCCC1=O.Cl [R(−)-ketamine, (2R)-2-(2-chlorophenyl)-2-(methylamino)cyclohexan-1-one]
−0.0 breaths/minute: Respiratory Rate, Change from Baseline, Mean (30 mg, to Day 1, 6 hours) | Respiratory Rate, Change from Baseline, Mean (60 mg, to Day 1, 40 minutes) | Respiratory Rate, Change from Baseline, Mean (60 mg, to Day 2 - Discharge)
−5 breaths/minute: Respiratory Rate, Change from Baseline, Min (30 mg, to Day 1, 40 minutes) | Respiratory Rate, Change from Baseline, Min (30 mg, to Day 1, 60 minutes) | Respiratory Rate, Change from Baseline, Min (30 mg, to Day 8)
−0.3 breaths/minute: Respiratory Rate, Change from Baseline, Mean (30 mg, to Day 15)
12 breaths/minute: Respiratory Rate, Min (60 mg, Day 1, 40 minutes) | Respiratory Rate, Min (60 mg, Day 1, 60 minutes) | Respiratory Rate, Min (60 mg, Day 1, 4 hours) | Respiratory Rate, Min (60 mg, Day 1, 6 hours) | Respiratory Rate, Min (60 mg, Day 2 - Discharge) | Respiratory Rate, Min (60 mg, Day 8) | Respiratory Rate, Min (60 mg, Day 15)
−8 breaths/minute: Respiratory Rate, Change from Baseline, Min (60 mg, to Day 1, 6 hours)
0.0 breaths/minute: Respiratory Rate, Change from Baseline, Median (30 mg, to Day 1, 15 minutes) | Respiratory Rate, Change from Baseline, Median (30 mg, to Day 1, 40 minutes) | Respiratory Rate, Change from Baseline, Median (30 mg, to Day 1, 60 minutes) | Respiratory Rate, Change from Baseline, Median (30 mg, to Day 1, 2 hours) | Respiratory Rate, Change from Baseline, Median (30 mg, to Day 1, 4 hours) | Respiratory Rate, Change from Baseline, Median (30 mg, to Day 1, 6 hours) | Respiratory Rate, Change from Baseline, Median (30 mg, to Day 2 - Discharge) | Respiratory Rate, Change from Baseline, Median (30 mg, to Day 8) | Respiratory Rate, Change from Baseline, Median (30 mg, to Day 15) | Respiratory Rate, Change from Baseline, Median (60 mg, to Day 1, 40 minutes) | Respiratory Rate, Change from Baseline, Median (60 mg, to Day 1, 2 hours) | Respiratory Rate, Change from Baseline, Median (60 mg, to Day 1, 4 hours) | Respiratory Rate, Change from Baseline, Median (60 mg, to Day 1, 6 hours) | Respiratory Rate, Change from Baseline, Median (60 mg, to Day 2 - Discharge) | Respiratory Rate, Change from Baseline, Median (60 mg, to Day 8) | Respiratory Rate, Change from Baseline, Median (60 mg, to Day 15)
11 breaths/minute: Respiratory Rate, Min (60 mg, Day 1, 2 hours)
18 breaths/minute: Respiratory Rate, Max (30 mg, Day 1, 40 minutes) | Respiratory Rate, Max (30 mg, Day 1, 2 hours) | Respiratory Rate, Max (30 mg, Day 1, 6 hours) | Respiratory Rate, Max (30 mg, Day 8) | Respiratory Rate, Max (30 mg, Day 15) | Respiratory Rate, Max (60 mg, Day 1, 15 minutes) | Respiratory Rate, Max (60 mg, Day 8)
22 breaths/minute: Respiratory Rate, Max (30 mg, Day 1, 15 minutes)
−3 breaths/minute: Respiratory Rate, Change from Baseline, Min (30 mg, to Day 1, 15 minutes) | Respiratory Rate, Change from Baseline, Min (30 mg, to Day 1, 6 hours) | Respiratory Rate, Change from Baseline, Min (60 mg, to Day 15)
1 breaths/minute: Respiratory Rate, Change from Baseline, Max (30 mg, to Day 2 - Discharge) | Respiratory Rate, Change from Baseline, Max (30 mg, to Day 15) | Respiratory Rate, Change from Baseline, Max (60 mg, to Day 1, 60 minutes)
16 breaths/minute: Respiratory Rate, Max (60 mg, Day 1, 60 minutes)
−0.6 breaths/minute: Respiratory Rate, Change from Baseline, Mean (60 mg, to Day 1, 15 minutes)
19 breaths/minute: Respiratory Rate, Max (60 mg, Day 1, 2 hours)
−2 breaths/minute: Respiratory Rate, Change from Baseline, Min (30 mg, to Day 1, 2 hours) | Respiratory Rate, Change from Baseline, Min (30 mg, to Day 1, 4 hours)
15.5 breaths/minute: Respiratory Rate, Median (30 mg, Day 1, 60 minutes) | Respiratory Rate, Mean (60 mg, Day 1, 15 minutes) | Respiratory Rate, Mean (60 mg, Day 1, 2 hours)
2 breaths/minute: Respiratory Rate, Change from Baseline, Max (30 mg, to Day 1, 40 minutes) | Respiratory Rate, Change from Baseline, Max (30 mg, to Day 1, 4 hours) | Respiratory Rate, Change from Baseline, Max (30 mg, to Day 1, 6 hours) | Respiratory Rate, Change from Baseline, Max (60 mg, to Day 1, 15 minutes) | Respiratory Rate, Change from Baseline, Max (60 mg, to Day 1, 2 hours)
0.2 breaths/minute: Respiratory Rate, Change from Baseline, Mean (30 mg, to Day 1, 4 hours)
15.7 breaths/minute: Respiratory Rate, Mean (30 mg, Day 1, 40 minutes) | Respiratory Rate, Mean (30 mg, Day 15) | Respiratory Rate, Mean (60 mg, Day 1, 6 hours) | Respiratory Rate, Mean (60 mg, Day 8)
15.0 breaths/minute: Respiratory Rate, Median (60 mg, Day 1, 15 minutes)
15.9 breaths/minute: Respiratory Rate, Mean (30 mg, Day 1, 2 hours) | Respiratory Rate, Mean (30 mg, Day 1, 6 hours) | Respiratory Rate, Mean (30 mg, Day 2 - Discharge) | Respiratory Rate, Mean (30 mg, Day 8) | Respiratory Rate, Mean (60 mg, Day 1, 40 minutes) | Respiratory Rate, Mean (60 mg, Day 1, 4 hours) | Respiratory Rate, Mean (60 mg, Day 2 - Discharge)
16.1 breaths/minute: Respiratory Rate, Mean (30 mg, Day 1, 4 hours)
−0.5 breaths/minute: Respiratory Rate, Change from Baseline, Mean (60 mg, to Day 1, 2 hours)
−0.8 breaths/minute: Respiratory Rate, Change from Baseline, Mean (60 mg, to Day 1, 60 minutes)
−0.2 breaths/minute: Respiratory Rate, Change from Baseline, Mean (30 mg, to Day 1, 40 minutes) | Respiratory Rate, Change from Baseline, Mean (60 mg, to Day 1, 6 hours) | Respiratory Rate, Change from Baseline, Mean (60 mg, to Day 8)
20 breaths/minute: Respiratory Rate, Max (60 mg, Day 1, 4 hours) | Respiratory Rate, Max (60 mg, Day 1, 6 hours) | Respiratory Rate, Max (60 mg, Day 2 - Discharge) | Respiratory Rate, Max (60 mg, Day 15)
16.0 breaths/minute: Respiratory Rate, Mean (30 mg, Day 1, 15 minutes) | Respiratory Rate, Median (30 mg, Day 1, 15 minutes) | Respiratory Rate, Median (30 mg, Day 1, 40 minutes) | Respiratory Rate, Median (30 mg, Day 1, 2 hours) | Respiratory Rate, Median (30 mg, Day 1, 4 hours) | Respiratory Rate, Median (30 mg, Day 1, 6 hours) | Respiratory Rate, Median (30 mg, Day 2 - Discharge) | Respiratory Rate, Median (30 mg, Day 8) | Respiratory Rate, Median (30 mg, Day 15) | Respiratory Rate, Median (60 mg, Day 1, 40 minutes) | Respiratory Rate, Median (60 mg, Day 1, 60 minutes) | Respiratory Rate, Median (60 mg, Day 1, 2 hours) | Respiratory Rate, Median (60 mg, Day 1, 4 hours) | Respiratory Rate, Median (60 mg, Day 1, 6 hours) | Respiratory Rate, Median (60 mg, Day 2 - Discharge) | Respiratory Rate, Median (60 mg, Day 8) | Respiratory Rate, Median (60 mg, Day 15)
−0.1 breaths/minute: Respiratory Rate, Change from Baseline, Mean (30 mg, to Day 1, 2 hours) | Respiratory Rate, Change from Baseline, Mean (30 mg, to Day 2 - Discharge) | Respiratory Rate, Change from Baseline, Mean (30 mg, to Day 8) | Respiratory Rate, Change from Baseline, Mean (60 mg, to Day 1, 4 hours) | Respiratory Rate, Change from Baseline, Mean (60 mg, to Day 15)
17 breaths/minute: Respiratory Rate, Max (30 mg, Day 1, 60 minutes)
−1.0 breaths/minute: Respiratory Rate, Change from Baseline, Median (60 mg, to Day 1, 15 minutes) | Respiratory Rate, Change from Baseline, Median (60 mg, to Day 1, 60 minutes)
3 breaths/minute: Respiratory Rate, Change from Baseline, Max (30 mg, to Day 1, 15 minutes) | Respiratory Rate, Change from Baseline, Max (30 mg, to Day 1, 60 minutes) | Respiratory Rate, Change from Baseline, Max (30 mg, to Day 1, 2 hours) | Respiratory Rate, Change from Baseline, Max (30 mg, to Day 8) | Respiratory Rate, Change from Baseline, Max (60 mg, to Day 1, 4 hours)
15.4 breaths/minute: Respiratory Rate, Mean (30 mg, Day 1, 60 minutes)
15.2 breaths/minute: Respiratory Rate, Mean (60 mg, Day 1, 60 minutes)
−0.4 breaths/minute: Respiratory Rate, Change from Baseline, Mean (30 mg, to Day 1, 60 minutes)
23 breaths/minute: Respiratory Rate, Max (60 mg, Day 1, 40 minutes)
−6 breaths/minute: Respiratory Rate, Change from Baseline, Min (30 mg, to Day 15) | Respiratory Rate, Change from Baseline, Min (60 mg, to Day 8)
13 breaths/minute: Respiratory Rate, Min (30 mg, Day 1, 40 minutes) | Respiratory Rate, Min (30 mg, Day 1, 2 hours)
21 breaths/minute: Respiratory Rate, Max (30 mg, Day 1, 4 hours) | Respiratory Rate, Max (30 mg, Day 2 - Discharge)
−4 breaths/minute: Respiratory Rate, Change from Baseline, Min (30 mg, to Day 2 - Discharge) | Respiratory Rate, Change from Baseline, Min (60 mg, to Day 1, 15 minutes) | Respiratory Rate, Change from Baseline, Min (60 mg, to Day 1, 40 minutes) | Respiratory Rate, Change from Baseline, Min (60 mg, to Day 1, 60 minutes) | Respiratory Rate, Change from Baseline, Min (60 mg, to Day 1, 2 hours) | Respiratory Rate, Change from Baseline, Min (60 mg, to Day 1, 4 hours) | Respiratory Rate, Change from Baseline, Min (60 mg, to Day 2 - Discharge)
6 breaths/minute: Respiratory Rate, Change from Baseline, Max (60 mg, to Day 1, 6 hours) | Respiratory Rate, Change from Baseline, Max (60 mg, to Day 15)
4 breaths/minute: Respiratory Rate, Change from Baseline, Max (60 mg, to Day 1, 40 minutes) | Respiratory Rate, Change from Baseline, Max (60 mg, to Day 2 - Discharge) | Respiratory Rate, Change from Baseline, Max (60 mg, to Day 8)
0.1 breaths/minute: Respiratory Rate, Change from Baseline, Mean (30 mg, to Day 1, 15 minutes)
15.8 breaths/minute: Respiratory Rate, Mean (60 mg, Day 15)
14 breaths/minute: Respiratory Rate, Min (30 mg, Day 1, 15 minutes) | Respiratory Rate, Min (30 mg, Day 1, 60 minutes) | Respiratory Rate, Min (30 mg, Day 1, 4 hours) | Respiratory Rate, Min (30 mg, Day 1, 6 hours) | Respiratory Rate, Min (30 mg, Day 2 - Discharge) | Respiratory Rate, Min (30 mg, Day 8) | Respiratory Rate, Min (30 mg, Day 15) | Respiratory Rate, Min (60 mg, Day 1, 15 minutes)
